Tested on: antigen-specific cellular immunity (IFN-γ-producing spleen cells)
Test: Mouse immunization test 1 (tape preparation), ELISPOT
Assay type: in vivo, genetically modified mouse (HLA-A*0201 type MHC)
Conditions: acid added to WT1 peptide tape preparation (Table 1)
Protocol: Mouse immunization test was performed with the tape preparations using a model animal for immunological evaluation. Evaluation of the immunity induction level was performed by the ELISPOT method. Specifically, the hair of the back of the mouse was cut. The mouse was kept until it recovered from the skin damage due to the hair cutting. After that, a sample was applied to the back of the mouse for the predetermined time, and then removed. Then, the mouse was kept for predetermined days and the level of the antigen-specific cellular immunity was evaluated. After predetermined days from the application of the sample, the spleen was isolated and a spleen cell suspension was prepared. Spleen cells (3×10^6 cells/well) and the antigen peptide (100 μM) together with the culturing medium were placed into a well of an ELISPOT plate on which an anti-mouse IFN-γ antibody had been immobilized. The plate was cultured for 20 hours under the condition of 37° C. and 5% CO2. The number of the spots representing IFN-γ-producing cells (spot number/3×10^6 cells) was evaluated by the ELISPOT method.
The amount of administration of the tape preparation was set to 0.7 cm^2 as described above, the number of administrations was (24 hr/week)×once, and extraction of the spleen was carried out 6 days after the administration. The mouse used for the experiment was a genetically modified mouse by which cellular immunity induction caused by HLA-A*0201 type MHC-restricted peptide can be evaluated.
In Example 8, administration was carried out on skin that was injured with a microcutter (MICRO FEATHER No. 7330G, manufactured by Feather Safety Razor Co., Ltd.).

Structure (SMILES)	Promotion of cellular immunity induction by acid as second cellular immunity induction promoter
CCCCCCCCCC(=O)O [decanoic acid]	effective
CC(C)CCCCCCCCCCCCCCC(=O)O [isostearic acid]	particularly effective
CC(O)C(=O)O (stereo not drawn) [lactic acid]	particularly effective
CCCCCCCCCCCC(=O)O [lauric acid]	particularly effective
CCCCCCCCCCCCCC(=O)O [myristic acid]	particularly effective
CCCCCCCC(=O)O [octanoic acid]	effective
CCCCCCCC/C=C\CCCCCCCC(=O)O [oleic acid]	particularly effective
CCCCCCCCCCCCCCCC(=O)O [palmitic acid]	effective
CCCCCCCCCCCCCCCCCC(=O)O [stearic acid]	effective

Reference: patent US10195258B2, “Tape preparation of WT1 peptide cancer vaccine for transdermal administration” (NITTO DENKO CORPORATION, priority 2013, dated 2019)
